Test results taken from PubChem BioAssay AID504581 (National Center for Advancing Translational Sciences (NCATS), 2011).

System: PBS pH 7.4 stability, 37 C, LC-MS/MS, 48 h
Experiment: Inhibitors of 12-hLO: PBS Stability Profiling
Details: at 2 µM; active compounds read high
Excerpt: Assay Provider: Holman, T.R., University of California, Santa Cruz Grant #: MH08128301 Screening Center PI: Austin, C.P. Screening Center: NIH Chemical Genomics Center [NCGC] Human lipoxygenase 12hLO is a member of the closely related lipoxygenase family of enzymes which catalyze the site-specific oxidation of arachidonic acid to various hormone precursor molecules and as such is a candidate for drug development in a variety of disease areas, such as cancer and inflammation. After qHTS, hits were confirmed in follow-up assays, and leads were optimized through SAR. The resulting lead compound was further characterized through a battery ADME-Tox experiments, and this assay describes its stability in PBS buffer. The stability of the lead compound in PBS buffer is tested because this parameter has a significant impact on many ADME-concerned properties of drugs, such as uptake, distribution, transport, and eventually bioavailability.
2microM of compound is incubated in PBS buffer at pH 7; the reference compound is procaine. Compounds are incubated at 37 deg C for the pre-determined time periods and the when aliquots are removed. Samples are analyzed with LC-MS/MS.

Q: `CC(=O)NC(c1cccs1)c1cc(Br)c2cccnc2c1O` (stereo unspecified) was tested. Which percent remaining did it give?
A: The percent remaining was 100%.
